Tests used:
[1] = test system: THP-1 clone No. 63 (containing PGL2_Neo30); assay: Luciferase reporter gene assay for compounds which destabilize mRNA, clone No. 63; type: cell-based; settings: clone 63
Description: (§1) One method for identifying a the ability of a compound of the present invention to induce mRNA degradation, comprises i) contacting the compound with a DNA expression system which in the absence of the compound is capable of expressing a protein having a detectable signal, wherein the mRNA which codes for the protein and which is transcribed from the expression system comprises at least one copy of a mRNA instability sequence; ii) measuring the detectable signal in the presence of the test compound and comparing the result obtained with a control. A related method can be used to compare compounds which induce mRNA degradation. This method comprises separately contacting the compounds with a DNA expression system which in the absence of the compounds is capable of expressing a protein having a detectable signal, wherein the mRNA which codes for the protein and which is transcribed from the expression system comprises at least one copy of a mRNA instability sequence, measuring the detectable signal in the presence of each test compound and comparing the signals obtained.
(§2) The THP-1 cell lines, clone No. 63 (containing PGL2_Neo30) and clone No. 53 (containing pGL2-Control) are grown, differentiated and stimulated with IFN-γ and LPS identical to normal THP-1 cells (for details see WO 00/39314). Compound is added 16 hrs after the addition of LPS and cell extracts are then taken 8 hrs later or as indicated. Luciferase activity was inhibited by 1 μM benzoic acid derivative on average by 40%, whereas up to 5 μM of benzoic acid derivative had no effects on the control clone No. 53.

[2] = test system: THP-1 clone No. 53 (containing pGL2-Control); assay: Luciferase reporter gene assay, control clone No. 53; type: cell-based; settings: control clone 53
Description: as §1, §2

SMILES: COc1cccc(C)c1C(=O)OC[C@@H]1C=CC(=O)O1
- Luciferase reporter gene assay (% control) ([1]; 0.5 μM): 85 % control
- Luciferase reporter gene assay (% control) ([1]; 1 μM): 79 % control
- Luciferase reporter gene assay (% control) ([1]; 5 μM): 29 % control
- Luciferase reporter gene assay (% control) ([2]; 0.5 μM): 89 % control
- Luciferase reporter gene assay (% control) ([2]; 1 μM): 93 % control
- Luciferase reporter gene assay (% control) ([2]; 5 μM): 99 % control
